Data from patent publication US7597882B2, “Protein crosslinkers, crosslinking methods and applications thereof” (Incept LLC, priority 2006, dated 2009).

Columns and labels:
Solubility in water = format: physicochemical
albumin = molecular target: T1, albumin (Bos taurus, UniProt P02769); test: Gelation of albumin solution in PBS by synthetic crosslinker after raising pH; set-up: species or system bovine; conditions: for time to soft hydrogel: 333 mg bovine serum albumin in 0.667 ml PBS; for Gel time: 27° C.
T1 construct: 333 mg bovine serum albumin was dissolved in 0.667 ml PBS
T1 sequence (P02769 25-607): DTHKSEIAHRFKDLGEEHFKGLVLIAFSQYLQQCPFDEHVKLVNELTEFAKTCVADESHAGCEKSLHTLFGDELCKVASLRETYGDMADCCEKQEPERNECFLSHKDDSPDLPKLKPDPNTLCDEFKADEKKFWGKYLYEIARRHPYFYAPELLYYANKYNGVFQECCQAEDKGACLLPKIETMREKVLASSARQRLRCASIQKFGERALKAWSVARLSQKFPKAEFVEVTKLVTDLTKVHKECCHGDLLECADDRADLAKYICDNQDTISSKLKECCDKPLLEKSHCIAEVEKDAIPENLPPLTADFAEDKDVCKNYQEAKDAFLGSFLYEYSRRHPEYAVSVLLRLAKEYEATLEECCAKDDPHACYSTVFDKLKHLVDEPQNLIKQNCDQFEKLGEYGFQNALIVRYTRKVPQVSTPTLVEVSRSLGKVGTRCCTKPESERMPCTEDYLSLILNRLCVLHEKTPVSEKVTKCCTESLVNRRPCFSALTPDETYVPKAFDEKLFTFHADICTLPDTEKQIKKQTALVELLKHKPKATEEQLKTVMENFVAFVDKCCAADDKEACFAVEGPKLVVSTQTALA
Description: As described above, a biological fluid (e.g., blood, serum, or fibrinogen rich fractions) may be used for reaction with crosslinkers or the monomers to form a crosslinked gel material. The material may be made in preparation for a medical procedure, e.g., immediately before or during the same, and used with a crosslinker or the monomer. […] The crosslinking reaction is accelerated by raising the pH of the solution. This can be achieved by contacting such composition with suitable alkaline buffer. Nonlimiting examples of suitable alkaline buffers include HEPES, sodium hydroxide, potassium hydroxide, calcium hydroxide, bicarbonate/NaOH pH 10, sodium borate pH 10, 1.5 M glycine/NaOH pH 10, 0.5-0.75M sodium carbonate/bicarbonate pH 10, 1M hydroxyethylepiperazine propane sulfonic acid (EPPS) pH 8.5, Trishydroxymethyl aminoethane sulphonic acid pH 8 and triethanol amine pH 7. The amount of alkaline buffer that is utilized should be enough to induce crosslinking. In some cases, the crosslinker is mixed with the alkaline buffer to raise the pH and then mixed with biological fluid to induce crosslinking or gelation. This method is least preferred due to hydrolysis of n-hydroxysuccimide esters at higher pH. The amine-succinimide ester reaction parameters such as number of reactive functional groups present on the biological fluid components, concentration of each ingredient, pH, temperature and pressures are adjusted such that gelation occurs within 60 minutes, more preferably with in 60 seconds and most preferably with 1 to 10 seconds.
pH was raised using 3M NaOH solution, at ambient temperature (27° C.) and mixed equal volumes. […] PEG 600 is polyethylene glycol with a molecular weight of 600.
[…] of […] was dissolved in 1 ml PBS. […] 20 microliter […] solution in PBS and 20 microliter albumin solution were mixed on a glass plate to form a uniform solution.
[…] of BTANHS was dispersed in 0.9 ml PBS. […] 20 microliter BTANHS dispersion in PBS and 20 microliter of albumin solution were mixed on a glass plate to form a uniform dispersion.
[…] of BTANHS was dispersed in 0.8 ml PBS containing 2% PLURONIC F127 (from BASF corporation USA) as a surfactant. Sonication or high speed stirring helps to form the emulsion. […] 20 microliter BTANHS emulsion in PBS and 20 microliter of albumin solution were mixed in a 1 ml plastic centrifuge tube to form a uniform solution.
Polyethylene glycol serves as an organic solvent. 200 mg bovine serum albumin was dissolved in 0.800 ml PBS.
20 microliter albumin solution and 20 microliter crosslinkers solution were mixed on a glass plate to form a uniform solution.

[1] = Degradation of crosslinked gel made with 8 arm PEG amine; format: physicochemical; conditions: gel with 8 arm PEG amine 20000; hydrolysis of ester bond of crosslinker
Description: 1 ml of each of these two solutions are mixed to produce a crosslinked gel. The crosslinked gel degrades due to hydrolysis of succinate ester bond in Hydroxylamine Succinate NHS ester.
0.12 g Hydroxylamine Glutarate NHS ester (Example 7) is dissolved in 5 ml phosphate buffered saline. 1 ml of each of two solutions are mixed to produce a crosslinked gel. The crosslinked gel degrades due to hydrolysis of glutarate ester bond in Hydroxylamine Glutarate NHS ester.

solubility in water (Solubility in water) | time to soft hydrogel (albumin; crosslinker dispersion in PBS, 3M sodium hydroxide) [min] | time to soft hydrogel (albumin; crosslinker emulsion in PBS with 2% PLURONIC F127, triethanol amine) [min] | Notes (gel formed) (albumin; 5% albumin in PBS, crosslinker 10% in PBS) | Gel time (albumin; 5% albumin in PBS, crosslinker 10% in PBS, 3M NaOH, equal volumes) [min] | Notes (gel formed) (albumin; 5% albumin in PBS, crosslinker (10%) in PEG 600) | Gel time (albumin; 5% albumin in PBS, crosslinker (10%) in PEG 600, 3M NaOH) [min] | Notes (gel formed) (albumin; 10% albumin in PBS, crosslinker 10% in PBS) | Gel time (albumin; 10% albumin in PBS, crosslinker 10% in PBS, 3M NaOH, equal volumes) [min] | Notes (gel formed) (albumin; 20% albumin in PBS, crosslinker 10% in PBS) | Gel time (albumin; 20% albumin in PBS, crosslinker 10% in PBS, 3M NaOH, equal volumes) [min] | Notes (gel formed) (albumin; 20% albumin in PBS, crosslinker (10%) in PEG 600) | Gel time (albumin; 20% albumin in PBS, crosslinker (10%) in PEG 600, 3M NaOH) [min] | Notes (gel formed) (albumin; 30% albumin in PBS, crosslinker 10% in PBS) | Gel time (albumin; 30% albumin in PBS, crosslinker 10% in PBS, pH raised with 3M NaOH, equal volumes) [min] | Compound | degradation of crosslinked gel [1]
Water Insoluble | 5 | 3 | Did not gel | >28 | Did not gel | >25 | Soft gel | 18 | Soft gel | 3 | Soft gel | 5 | Soft gel | 1 | O=C(CC(C(=O)ON1C(=O)CCC1=O)C(CC(=O)ON1C(=O)CCC1=O)C(=O)ON1C(=O)CCC1=O)ON1C(=O)CCC1=O (stereo not shown) [BTANHS] | –
– | – | – | – | – | – | – | – | – | – | – | – | – | – | – | Hydroxylamine Glutarate NHS Ester | degrades
